COc1cc2c(cc1OC)C(=O)CC2
solubility (mole fraction)
Settings | 283.15 K | 288.15 K | 293.15 K | 298.15 K | 303.15 K | 308.15 K | 313.15 K | 318.15 K | 323.15 K
in 2-butanone | 0.0514 | 0.0623 | 0.0746 | 0.0891 | 0.105 | 0.125 | 0.149 | 0.177 | 0.208
in acetone | 0.0486 | 0.0596 | 0.071 | 0.0834 | 0.101 | 0.122 | 0.146 | 0.173 | 0.2
in ethanol | 0.00826 | 0.0112 | 0.0141 | 0.0193 | 0.0242 | 0.0317 | 0.0412 | 0.0519 | 0.0636
in ethyl acetate | 0.0389 | 0.0492 | 0.059 | 0.0697 | 0.0842 | 0.101 | 0.122 | 0.147 | 0.171
in isobutanol | 0.0123 | 0.0161 | 0.0212 | 0.0288 | 0.0385 | 0.0493 | 0.0646 | 0.0806 | 0.102
in isopropanol | 0.00596 | 0.00802 | 0.0108 | 0.0146 | 0.0198 | 0.0269 | 0.0354 | 0.0455 | 0.0588
in isopropyl acetate | 0.0264 | 0.0329 | 0.0396 | 0.0485 | 0.0581 | 0.0691 | 0.0801 | 0.0933 | 0.11
in methanol | 0.0097 | 0.0124 | 0.0171 | 0.0238 | 0.0317 | 0.0418 | 0.0547 | 0.071 | 0.0902
in methyl acetate | 0.0426 | 0.053 | 0.0665 | 0.0793 | 0.0986 | 0.118 | 0.139 | 0.159 | 0.185
in n-butanol | 0.0118 | 0.0155 | 0.02 | 0.0268 | 0.0352 | 0.0451 | 0.0583 | 0.0739 | 0.0925
in n-butyl acetate | 0.025 | 0.0294 | 0.0359 | 0.0428 | 0.0503 | 0.0593 | 0.0695 | 0.0795 | 0.0897
in n-pentanol | 0.0115 | 0.0156 | 0.0216 | 0.0278 | 0.0386 | 0.0509 | 0.0659 | 0.0827 | 0.104
in n-propanol | 0.00925 | 0.0119 | 0.0158 | 0.0206 | 0.0281 | 0.0356 | 0.0457 | 0.0579 | 0.0695
in n-propyl acetate | 0.034 | 0.0424 | 0.05 | 0.0596 | 0.0694 | 0.0821 | 0.0962 | 0.109 | 0.129
in sec-butanol | 0.0105 | 0.0147 | 0.0199 | 0.0272 | 0.0357 | 0.0461 | 0.0612 | 0.0766 | 0.0943
